Here are results for one compound from patent US20250381307A1, “RETRO-AAV AND USE IN TREATING NEURODEGENERATIVE DISEASES” (priority 2023, published 2025).

Data set [1] concerns the target T1, rM3Ds (Rattus norvegicus, UniProt P08483, A177S/A238G/A489L/DEL261-437/DEL441-478/E258S/I253V/I483M/INS256[…]/K178L/K182A/K255R/K484R/K486H/L173F/L482A/M480V/R171S/R176Q/R179M/S481M/T174R/T181R/T257A/Y148C).
T1 sequence (P08483 with tags, fused parts or gaps Y148C/R171S/L173F/T174R/R176Q/A177S/K178L/R179M/T181R/K182A/A238G/I253V/K255R/INS256[…]/T257A/E258S/DEL261-437/DEL441-478/M480V/S481M/L482A/I483M/K484R/K486H/A489L): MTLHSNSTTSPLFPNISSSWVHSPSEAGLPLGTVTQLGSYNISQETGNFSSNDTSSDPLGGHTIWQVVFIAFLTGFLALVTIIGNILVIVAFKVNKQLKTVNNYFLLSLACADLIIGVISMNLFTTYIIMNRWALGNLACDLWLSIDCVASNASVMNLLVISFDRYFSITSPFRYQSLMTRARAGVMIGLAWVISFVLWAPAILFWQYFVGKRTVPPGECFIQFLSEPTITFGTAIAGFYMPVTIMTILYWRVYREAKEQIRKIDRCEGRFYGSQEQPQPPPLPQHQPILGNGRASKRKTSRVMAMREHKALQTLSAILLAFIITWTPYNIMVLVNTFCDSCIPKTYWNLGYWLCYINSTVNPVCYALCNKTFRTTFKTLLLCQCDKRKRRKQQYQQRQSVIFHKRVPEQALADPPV
The data set can be described thus: In vivo electrophysiological recording in caudate/putamen of MPP+ lesioned macaques. Further details: rM3Ds; 2A-EYFP (C); host or cells: AAV8R12-transduced striatal D1-MSNs of mice and cynomolgus macaques (in vivo and acute slices). On the procedure:
Electrophysiological recording was performed through a recording chamber while the monkey was anesthetized. Neural responses were recorded by a 16-channel linear probe (Plexon Inc, Uprobe) driven by a mechanical microdrive (Alpha Omega, FlexMT). Signals were passed through a head stage (Plexon Inc, HST/16V-G20 LN) and then split and filtered between 300 Hz and 5 kHz to identify spiking activity with an amplifier system (Plexon Inc, OmniPlex). Detected spikes were then sorted by commercially available software (Plexon Inc, Offline Sorter) for further analysis. To quantify the effect of CNO/DCZ injection, neural activity was recorded for 60 minutes following CNO/DCZ injection. The response time-course for each channel was obtained by counting the spikes within every 10-minute window and then normalizing to the maximal.
To determine the effect of CNO/DCZ injection on the direction of signal change, we performed Pearson correlation between neural responses and time using the ‘corr’ function in Matlab, which generates the correlation coefficient ‘r’ and significant level ‘p’. A neuron was considered to have “Increased” activity when r>0 and p<0.05; and considered to have “Decreased” activity when r<0 and p<0.05. Otherwise, neurons were considered to be “Unchanged” in their neural activities. The responses of all increased neurons were then averaged after being normalized by the maximal response (Crowe et al., 2014; Dai and Wang, 2018; Hirokawa et al., 2019) following CNO/DCZ injection, and then plotted as a function of time to generate the normalized population response.

The nature of data set [2]: Blood test of liver- and kidney-related factors during DCZ treatment. Particulars: FIG. 36B-36F. Format: in vivo, macaques. The text has this:
FIG. 36A-36F depict effects of D1-MSN activation on dyskinesia-like behavior and health state-related blood factors in parkinsonian macaques. FIG. 36A illustrates quantitation of dyskinesia score at 2 months, 4 months, and 8 months after treatment with DCZ. n=3 monkeys per group.

In data set [3] the target is T1, rM3Ds. On the procedure: Monkeys were continuously monitored by veterinarians after lesion.
Dyskinesia score criteria were: 0: Absent. 1: Mild, fleeting, present <30% of the observation period.
Each block included ten continuous trials.
Customized surface EMG electrodes were used for EMG recordings. […] The recording procedure was conducted immediately after DCZ infusions.

Data set [4] in a line: Locomotion test in naive macaques without viral injection. Format: in vivo. To be noted: DCZ 0.3 mg/kg i.m., FIG. 35A-35G.
Data set [5] in a line: CSF concentration of DCZ by LC-MS. Format: in vivo, macaques. To be noted: 24 hours after drug infusion, 0.3 mg/kg i.m., FIG. 24D.
Excerpt: One month of washout was allowed before administration of DCZ.

Regarding `CN1CCN(C2=Nc3ccccc3Nc3ccccc32)CC1` [DCZ, deschloroclozapine], the “caudate/putamen cells activated (FIG. 15G)” value on rM3Ds [1] (CNO 36 cells, DCZ 31 cells, saline 17.9%) is listed as 41.9%. Further, the “caudate/putamen cells inactivated (FIG. 15G)” value at rM3Ds [1] (saline 33.4%) is listed as 9.7%. Also, the “caudate/putamen cells unchanged (FIG. 15G)” value at rM3Ds [1] (saline 48.7%) was 48.4%. For the same compound, in data set [2], the “blood levels of common liver- and kidney-related factors (ALT, AST, GGT, CREA, BUN)” value is given as “remained stable”. Further, the “efficacy after extended prior L-Dopa administration” value on rM3Ds [3] (4 months prior L-Dopa, 1 month washout, FIG. 24F-24L) is “did not affect the efficacy of DCZ treatment or the absence of dyskinesia”. Further, the “alleviation of parkinsonian symptoms over long-term treatment” value on rM3Ds [3] (8-month continuous treatment with DCZ) is on record as “appeared to be consistent”. On rM3Ds [3] (DCZ, hand to mouth movement), the “motor skills” value is reported as “a significant recovery of motor skills”. Also, the “alleviation of symptoms after each dose at steady-state efficacy” value on rM3Ds [3] (FIG. 24C) is on record as “at least 24 hours”. Besides, the “parkinsonian symptoms” value at rM3Ds [3] (MPP+ macaques with AAV8R12-G88P7-rM3Ds-2A-EYFP, DCZ 0.3 mg/kg i.m., L-Dopa/benserazide 20/5 mg/kg/day oral) is “a reversal of canonical parkinsonian symptoms in all tested monkeys”. Moreover, the “tremor” value at rM3Ds [3] (after DCZ treatment, EMG) was “great reduced or even eliminated”. The “speed of reversal of symptoms” value at rM3Ds [3] (initial phase of drug administration, FIG. 24B) was “faster reversal of symptoms than levodopa”. For the same compound, on rM3Ds [3] (long-term treatment), the “dyskinesia” value is recorded as “dyskinesia-free”. Besides, the “duration of effect (FIG. 18C)” value at rM3Ds [3] (n=3 monkeys) is listed as “over 24 hr”. The “spontaneous movement in an observation cage” value on rM3Ds [3] (systemic DCZ) is listed as “an increase in spontaneous movement”. The “motor-related behaviors in naïve monkeys” value in data set [4] is “did not alter motor-related behaviors”. In addition, in data set [5], the “DCZ levels in cerebrospinal fluid” value is “no detectable levels”.
